Source: patent US4235776A, “Tetrahydro-2H-benzo[c]pyrroles” (Eli Lilly and Company, priority 1979, dated 1980)
Counter-ions that a name gives are not always drawn.

Legend:
mouse = assay: intraperitoneal toxicity in the mouse; format: in vivo
Method: In using the compounds of this invention to inhibit prolactin secretion or to treat Prakinson's syndrome or for other pharmacologic action, a pharmaceutically active compound according to Formula I above, or a salt thereof with a pharmaceutically-acceptable acid, is administered to a subject suffering from Parkinsonism or in need of having their prolactin level reduced in an amount effective to alleviate some of the symptoms of Parkinsonism or to reduce an elevated prolactin level. Oral administration is preferred. If parenteral administration is used, the injection is preferably by the subcutaneous route using an appropriate pharmaceutical formulation. […] In particular, with intravenous or intramuscular administration, a water soluble pharmaceutically-acceptable salt is employed. For oral administration, a pharmaceutically active compound according to Formula I either as the free base or in the form of a salt thereof can also be mixed with standard pharmaceutical excipients and loaded into empty telescoping gelatin capsules or pressed into tablets. The oral dosage range is from about 0.01 to 10 mg/kg of mammalian weight and the parenteral dose range from about 0.0025 to 2.5 mg/kg of mammalian weight.

prolactin = assay: inhibition of prolactin secretion in reserpine-treated male rats (serum prolactin); format: in vivo, Sprague-Dawley rat; conditions: intraperitoneal, one hour after treatment, reserpine-pretreated rats
Method: The compounds of this invention are also useful as prolactin inhibitors and as such can be employed in the treatment of inappropriate lactation, such as postpartum lactation, and of galactorrhea.
Adult male rats of the Sprague-Dawley strain weighing about 200 g. were housed in an air-conditioned room with controlled lighting (lights on 6 a.m.-8 p.m.) and fed lab chow and water ad libitum. Each rat received an intraperitoneal injection of 2.0 mg. of reserpine in aqueous suspension 18 hours before administration of the isoindole. The purpose of the reserpine was to keep prolactin levels uniformly elevated. The compounds under test were dissolved in water and were injected intraperitoneally at doses ranging from 5 mg/kg down to 50 mcg/kg. Each compound was administered at each dose level to a group of 10 rats, and a control group of 10 intact males received an equivalent amount of solvent. One hour after treatment all rats were killed by decapitation, and 150 μl aliquots of serum were assayed for prolactin.
The difference between the prolactin level of the treated rats and prolactin level of the control rats divided by the prolactin level of the control rats gives the percent inhibition of prolactin secretion attributable to the compounds of this invention. In the table, column 1 gives the name of the compound; and columns 2-4 the percent prolactin inhibition at the given dose level.

[1] = system: 6-hydroxydopamine-lesioned rats; assay: turning behavior in 6-hydroxydopamine-lesioned rats (dopamine agonist activity); format: in vivo, rat; conditions: 1 mg/kg intraperitoneal
Excerpt: In this test, nigro-neostriatal-lesioned rats are employed prepared by the procedure of Ungerstedt and Arbuthnott, Brain Res, 24, 485 (1970). A compound having dopamine agonist activity upon injection causes the rats to turn in circles contralateral to the side of the lesion. After a latency period, which varies from compound to compound, the number of turns is counted over a 15-minute period.

Row | Structure (SMILES) | lethality (mouse; dosages of 100-300 mg/kg, intraperitoneal) | deaths (mouse; intraperitoneal dosages of 10-30 mg/kg) | Percent Inhibition of Prolactin at a Given Dose Level (prolactin; 5 mg/kg) | Percent Inhibition of Prolactin at a Given Dose Level (prolactin; 50 mcg/kg) | Percent Inhibition of Prolactin at a Given Dose Level (prolactin; 500 mcg/kg) | rats exhibiting turning behavior [1] | average turns per rat ([1]; turns counted over a 15-minute period after latency)
1 | CCCN(CCC)C1CCc2c[nH]cc2C1 (racemic) [dl-5-di-n-propylamino-4,5,6,7-tetrahydro-2H-benzo[c]pyrrole maleate] | fatal | no deaths | 91% | 20% | 47% | 1/3 | 34 turns per rat
2 | CCN(CC)C1CCc2c[nH]cc2C1 (racemic) [dl-5-diethylamino-4,5,6,7-tetrahydro-2H-benzo[c]pyrrole maleate] |  |  | 23% |  | 25% |  | 
